Calls of active or inactive are those of the source.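 Rule for the calls: active = EC50 at or below 33 microM; inactive = the rest.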

The test relates to S. cerevisiae RPL19A-GFP strain, flow cytometry fluorescence, 3 h. The experiment in a line: RPL19A-GFP modulators, KU analog potency, SAR follow-up, cell-based, S. cerevisiae, flow cytometry, KU SAR compounds (AID 488808). A general note: In flow cytometry, cells or beads pass a laser one at a time.

Turning to `CSc1nnc2c3cc(F)ccc3n(C)c2n1`, the EC50 is 1.14 µM.

Turning to `O=S(=O)(CCN(CCS(=O)(=O)C(F)(F)F)CC1CCCO1)C(F)(F)F` (configuration not stated), the EC50 is 21.7 µM.

In the case of `Cc1cc(C(=O)Nc2nc(-c3ccccn3)cs2)ccc1[N+](=O)[O-]`, the EC50 was 85.3 µM (inactive).

In the case of `CC(C)(C)C(=O)C(Cl)C(=O)Nc1ccccc1` (configuration not stated), the EC50 was 4.18 µM.

With `Cc1ccc(S(=O)(=O)c2ncccc2[N+](=O)[O-])cc1`, the EC50 was 68.6 µM (inactive).

Turning to `COc1ccc([N+](=O)[O-])c(S(=O)(=O)c2ccccc2)n1`, the EC50 is 35.4 µM (inactive).

As for `Clc1ccc(N=c2ssnc2Cl)cc1`, the EC50 was 2.03 µM.

Consider `CN1CCN(C(=O)c2cc(COc3c(F)cccc3F)on2)CC1c1ccccc1` (configuration not stated), for which the EC50 was 58.4 µM (inactive).

In the case of `Cc1ccc(S(=O)(=O)c2ccc([N+](=O)[O-])cn2)cc1`, the EC50 is 3.77 µM.

Regarding `CCc1ccc(OCC(=O)NNC(=S)NC(=O)C2CC2)c(Br)c1`, the half-maximal effective concentration (EC50) was 2.74 µM.

Take `Cc1ccc(NC(=O)c2cc(N3C(=O)C=CC3=O)ccc2N2CCOCC2)cc1Cl`: the EC50 is 0.78 µM.

For the compound `O=C(NC(=S)NNC(=O)c1cnccn1)c1ccc(F)cc1`, the EC50 was 3.66 µM.

Take `O=C(Oc1ccnc2cc(Cl)ccc12)N1CCCCCC1`: the EC50 is 16.7 µM.

For the compound `Cc1ccc(-c2nn(C(C)(C)C)c3ncnc(N)c23)cc1`, the EC50 was 1.19 µM.

Consider `CC1=NN(c2ccccc2)C(=O)C1C(c1ccccc1[N+](=O)[O-])C(C#N)C#N` (configuration not stated), for which the EC50 is 3.65 µM.

In the case of `C[C@@H]1C[C@@H]([C@H](O)CC2CC(=O)NC(=O)C2)C(=O)[C@@H](C)C1`, the EC50 was 0.87 µM.

Regarding `Cc1ccc(C(=O)NNC(=S)NC(=O)COc2ccccc2)cc1`, the EC50 is 52.7 µM (inactive).

Take `CCOC(=O)CS(=O)(=O)c1nc(-c2ccccc2)cc(C(F)(F)F)n1`: the half-maximal effective concentration (EC50) is 30.2 µM.

On to `O=c1cc(CSc2ccc(Cl)cc2)nc(-c2ccccn2)[nH]1`, for which the EC50 was 1.27 µM.

As for `CC(Oc1ccc(Cl)cc1)C(=O)NNC(=S)NC(=O)c1ccco1` (configuration not stated), the EC50 is 3.54 µM.

As for `Cn1ncc(S(=O)(=O)Cc2ccccc2)c(Cl)c1=O`, the EC50 is 2.73 µM.

Turning to `CCC(C)Nc1nc(N)c([N+](=O)[O-])c(Nc2cccc(F)c2)n1` (configuration not stated), the EC50 is 50 µM (inactive).

As for `O=C(OCn1ncc(Br)c(Br)c1=O)c1ccc(F)cc1`, the EC50 is 4.53 µM.

Consider `CNc1nc(N)c([N+](=O)[O-])c(Nc2cc(OC)ccc2OC)n1`, for which the EC50 is 3.04 µM.

Turning to `Cc1ccc2nc(Cl)c3nnnn3c2c1`, the EC50 is 2.11 µM.

As for `CC(C)(C)n1nc(-c2ccc(F)cc2)c2c(N)ncnc21`, the concentration giving a half-maximal response (EC50) is 1.01 µM.

Consider `O=C(OCn1ncc(Br)c(Br)c1=O)c1c(F)cccc1F`, for which the EC50 is 3.55 µM.

As to `O=[N+]([O-])c1cc(S(=O)(=O)C(F)(F)F)ccc1Sc1nc2ccccc2s1`, the EC50 is 17.3 µM.

In the case of `CC(C)(C)C(=O)NC(=S)NNC(=O)c1ccc(-c2ccccc2)cc1`, the EC50 is 30.2 µM.

As to `O=C(OCC(=O)N1CCN(C(=O)c2ccco2)CC1)c1cc(-c2cccc(Br)c2)nc2ccccc12`, the EC50 is 8.08 µM.

In the case of `O=C(OCC(=O)N1CCN(C(=O)c2ccco2)CC1)c1cc(-c2ccc(F)cc2)nc2ccccc12`, the concentration giving a half-maximal response (EC50) was 3.01 µM.

With `CCOC(=O)CSC1=NC(=O)/C(=C\c2ccc(Cl)cc2)S1`, the EC50 is 16 µM.

With `Nc1cc(Oc2cccc(Cl)c2)nc(NCc2ccccc2)n1`, the EC50 is 252 µM (inactive).

As to `Cc1ccc(NC(=O)c2ccc(Cl)c(N3C(=O)C=CC3=O)c2)cc1`, the EC50 is 3.03 µM.

As for `CN(C)CCCNc1nc(N)c([N+](=O)[O-])c(Nc2cccc(F)c2)n1`, the EC50 was 106 µM (inactive).

Regarding `CCOC(=O)CCS(=O)(=O)c1nc(-c2ccccc2)cc(C(F)(F)F)n1`, the EC50 was 47.9 µM (inactive).

`Cc1nn2c(-c3ccncc3)nnc2c2ccccc12`: the EC50 was 4.6 µM.

`C[C@H]1C[C@@H](C)C(=O)[C@@H]([C@H](O)CC2CC(=O)NC(=O)C2)C1`: the 50% effective concentration (EC50) is 0.42 µM.

For the compound `O=[N+]([O-])c1ccc(O)c2ncccc12`, the EC50 was 25.4 µM.

Turning to `COc1ccc(C(=O)NC(=S)NNC(=O)c2cnccn2)cc1`, the EC50 was 0.71 µM.

On to `O=C(Oc1c(Cl)cc(Cl)c2cccnc12)c1cccc([N+](=O)[O-])c1`, for which the EC50 is 59.9 µM (inactive).

Turning to `CSC1=NS(=O)(=O)c2c(C)nn(C)c2S1`, the EC50 was 175 µM (inactive).

On to `C/C(=N\NC(=O)c1ccc(C(C)(C)C)cc1)c1ccccn1`, for which the EC50 was 293 µM (inactive).

`O=[N+]([O-])c1cc(Cl)c2cccnc2c1O`: the concentration for a half-maximal effect (EC50) was 27.2 µM.

Turning to `O=[N+]([O-])c1ccc(S(=O)(=O)c2cccc(C(F)(F)F)c2)nc1`, the concentration giving a half-maximal response (EC50) is 1.37 µM.

As for `Cc1cc(C(=O)COC(=O)c2ccc[nH]c2=O)c(C)n1-c1ccccc1F`, the EC50 is 3.28 µM.

As for `CC(C)(C)c1ccc(NC(=O)COC(=O)c2ccc([N+](=O)[O-])s2)cc1`, the EC50 is 2.02 µM.

Take `CC(C)(C)n1nc(-c2ccc(Cl)cc2)c2c(N)ncnc21`: the half-maximal effective concentration (EC50) was 0.42 µM.

Turning to `CCN(CC)C(=O)Oc1ccnc2cc(Cl)ccc12`, the EC50 was 119 µM (inactive).

`CNc1nc(N)c([N+](=O)[O-])c(Nc2cccc(F)c2)n1`: the EC50 was 5.19 µM.

As to `COc1ccc(/C=C/C(=O)NC(=S)NNC(=O)c2cnccn2)cc1`, the EC50 is 11.4 µM.

With `CC(=O)Nc1ncnc2c1c(-c1ccc(Cl)cc1)nn2C(C)(C)C`, the concentration giving a half-maximal response (EC50) is 11.5 µM.

Turning to `CCOC(=O)c1c(C)oc2c1c(C(c1cccnc1)N1CCOCC1)c(O)c1ccccc12` (configuration not stated), the EC50 is 2.78 µM.

Take `COc1ccc([N+](=O)[O-])c(S(=O)(=O)c2ccc(Cl)cc2)n1`: the EC50 is 4.49 µM.

As for `COC(=O)CCS(=O)(=O)c1nc(-c2ccccc2)cc(C(F)(F)F)n1`, the EC50 was 66.5 µM (inactive).

As for `c1ccc(-c2cccc(-c3ccccn3)n2)nc1`, the EC50 is 49.9 µM (inactive).

As to `Nc1cc(Nc2cccc(F)c2)nc(NCc2ccccc2)n1`, the EC50 was 292 µM (inactive).

Broadly, the EC50 is the concentration giving half of the maximal effect.

(Values after PubChem BioAssay AID488808 (NMMLSC, 2010).)
